# Assay results taken from patent publication US20110144209A1, “USE OF VASOCONSTRICTORS” (priority 2008, published 2011).
# Tests used:
# [1] = system: porcine carotid arteriovenous anastomoses; settings: porcine (De Vries et al. 1998); cited from earlier work
# AVA = settings: Pollock et al. 1996; cited from earlier work
# [2] = cited from earlier work
# adult male Wistar rat = settings: injection into the preoptic area of rat brain; cited from earlier work
# Male Wistar rats = system: Male Wistar rats
# Description: Although there are differences between the thermoregulatory system of rats and humans, the tails and feet pads of rats function as thermoregulatory organs in a similar fashion to human skin. The rat tail skin and feet pads are exposed and not covered by fur. By controlling the blood flow to the tail skin and feet pads, the rat controls some of its heat dissipation to the environment. Only about 30% of the rat heat loss is regulated by the tail—much less than the role of the skin in humans.
# Male Wistar rats, each about 400 g mass, were divided into three groups: a control group (C) of 8 rats, a test first group (A) of 7 rats, and a third test group (B) of 5 rats. All rats had test composition applied to the tail skin and the feet pads. All experiments were conducted at 23° C. ambient room temperature. All groups went though an anesthesia period of one hour (t=0 is time of start of anesthesia), and a follow-up period of 3 hours after end of anesthesia. Core body temperature (CBT) and tail skin temperature of the rats was measured using a thermocouple-based digital thermometer with 0.1° C. sensitivity.
# For test group A, the cream was identical to that used for the control group, except it contained 6 wt. % epinephrine, a vasoconstrictor. The cream for test group B was the same as that for group A, except that the cream contained 20 wt. % penetration enhancer.
# The cream on both control group C and test group A was applied at two times: first, concomitantly with application of anesthesia (t=0), and again at 20 min into anesthesia (t=20 m=⅓ h). CBT and tail temperatures were measured at t=0, 20, 40, 60, 120, 180 and 240 minutes.
# In test group (B), two changes were made to the experimental procedure. First, the concentration of penetration enhancer (propylene glycol) in the cream was doubled to 20 wt. %. Second, the time of first cream application was done at 30 min before anesthesia (t=−30 min) and the second cream application was given with initiation of administration of anesthetic (t=0).
# pigs = settings: 6 wt.% epinephrine, 10 wt.% propylene glycol cream at t=-40 min and t=0; after 130 minutes; room 20° C.
# Description: The same composition, but without the epinephrine, was prepared for use as a control. Five pigs, each weighing 55-65 kg, were divided into two groups, three in the experimental group and two in the control group. The cream was administered 40 minutes before the onset of anesthesia (t=−40 min) and again with the commencement of general anesthesia (t=0). The room temperature was 20° C., with +/−1° C. fluctuations due to the thermostat of the air conditioner. The pigs were not covered with anything other than the cream, with which there were covered over their entire skin surface. Core body temperature was measured at t=−40, 0, 30, 50, 70, 100 and 130 min.
# [3] = humans, 1.5 mg/kg, cited from earlier work
# humans = settings: cited from earlier work
# rhesus monkeys = settings: cited from earlier work
# [4] = system: Sprague Dawley albino rats; experiment: Anesthesia-induced hypothermia in rats, topical norepinephrine cream on tail, feet and ears (Example 2); assay type: in vivo, rat
# Description: This experiment was similar to the experiment of Example 1, although Sprague Dawley albino rats were used. […] The test cream composition was 10% Norepinephrine vasoactive substance, 10% penetration enhancer (propylene glycol), and 80% conventional base cream.
# All rats were subjected to one hour pre-anesthesia time (t=−60 to t=0), one hour anesthesia (t=0 to t=60), and 4 hours post anesthesia (t=60 to t=300). The appropriate cream was applied to the tail, feet, and ears skin surface of each rat. There were four rats in each test/control group. Vasoconstrictor cream was applied to the test group rats 3 times, at t=−60, t=−30, and t=0 min before anesthesia. Core body temperature was measured rectally. Rat tail skin temperature was measured at around the mid-length of the tail by press touching the thermometer tip to the skin surface.
# [5] = group B: 6 wt.% epinephrine, 20 wt.% propylene glycol
smiles,measurement,setting,value
c1ccc2c(c1)CC[C@H](CNCCCNC1=NCCCN1)O2 [alniditan],constriction of carotid arteriovenous anastomoses,[1],potently constrict
"Brc1c(NC2=NCCN2)ccc2nccnc12 [UK-14304, 5-bromo-N-(4,5-dihydro-1H-imidazol-2-yl)-6-quinoxalinamine]",effect on AVA,AVA,produced constriction of the AVA
CNC[C@H](O)c1cccc(O)c1 [phenylephrine],effect on AVA,AVA,produced AVA constriction
same,time after application at which vasoconstricting effect begins,[2]; topical / dermal,about 3 hours
COc1ccc(OC)c(C(O)C(C)N)c1 (centres unmarked) [methoxamine],effect on body temperature,adult male Wistar rat,resulted in hypothermia
CNC[C@H](O)c1ccc(O)c(O)c1 [epinephrine],response time of vasoconstrictor action,Male Wistar rats; 6% Epinephrine cream of Example 1,20 to 30 min
same,duration of effect of vasoconstrictor application on CBT after anesthesia,"Male Wistar rats; group A: 6 wt.% epinephrine, 10 wt.% propylene glycol",at least 3 hours
same,tail temperature versus control group,"Male Wistar rats; group A: 6 wt.% epinephrine, 10 wt.% propylene glycol, 20 minutes into the experiment",higher in the control group than in group A
same,difference in CBT between test and control group,"Male Wistar rats; group A: 6 wt.% epinephrine, 10 wt.% propylene glycol, after 40 minutes through the remainder of the experiment (240 min)",one
same,difference in CBT between groups A and C,"Male Wistar rats; group A: cream with 6 wt.% epinephrine, 10 wt.% propylene glycol, applied t=0 and 20 min, first 40 minutes, 23° C. ambient",no significant difference
same,time after which test group temperature rapidly falls off,Male Wistar rats; [5],2 h
same,time from anesthesia within which the CBT difference is established,Male Wistar rats; [5],≤ 20 min
same,difference in CBT versus control group C,"Male Wistar rats; group B: 6 wt.% epinephrine, 20 wt.% propylene glycol, applied t=-30 min and t=0, maintained throughout anesthesia (t=60 m)",2 °C
same,average decrease in CBT,pigs,0.7 °C
same,time after which activity diminishes significantly,[2]; topical,3 h
same,time to initial vasoconstrictor action after application,[2]; topical,≤ 20 min
"CNC(C)Cc1ccc2c(c1)OCO2 (centres unmarked) [MDMA, 3,4-methylenedioxymethamphetamine]",time of peak plasma concentration after oral administration,[3],about two
same,peak plasma concentration (average),[3]; oral,0.331 ng/mL
same,hyperthermic response,"humans; humans, all doses tested (up to 2.0 mg/kg), laboratory conditions (Liechti 2000)",little or no hyperthermic response
same,effect on core body temperature at different ambient temperatures,"humans; recreational users, single exposure (Freedman et al. 2005)",produced hyperthermia regardless of ambient temperature
same,time to flat peak of thermoregulatory disruption effect,"rhesus monkeys; monkeys, after intravenous injection",about 90 minutes
same,duration of flat peak of thermoregulatory disruption effect,"rhesus monkeys; monkeys, intravenous injection",about 3 hours
same,hyperthermic rise compared to control,"rhesus monkeys; rhesus monkeys, ambient temperature up to 31° C. (Banks et al. 2007)",≤ 1 °C
"NC[C@H](O)c1ccc(O)c(O)c1 [Norepinephrine, Norepinephrine Bitartrate]","start of difference in core body temperature, time into anesthesia",[4]; 10% norepinephrine cream,about 20 min
same,reversal of core and tail temperatures versus control,"[4]; 10% norepinephrine cream, at about 90 min post anesthesia",the control group temperature goes above the test group temperature
same,start of pronounced vasoconstrictor action after first application of cream,"[4]; 10% norepinephrine cream, from skin and core temperature",about 80 min
same,test group core body temperature higher than control group,"[4]; 10% norepinephrine, 10% propylene glycol cream applied t=-60, -30, 0 min, remaining anesthesia period and 60 min post anesthesia",1-1.5 °C
same,effect on AVA,AVA,produced AVA vasoconstriction
CNS(=O)(=O)Cc1ccc2[nH]cc(CCN(C)C)c2c1 [sumatriptan],constriction of carotid arteriovenous anastomoses,[1],potently constrict
